Experimental data published in patent publication US11149014B2, “Method for treating pain or associated condition or symptom” (priority 2014, dated 2021).

Tests used:
Format in all cases: in vivo
Female sabra mice = test: Forced swimming test (FST) for depressive effect; conditions: 5 mg/kg, 10 min after ip
Method: To find out whether HU436 has depressive effects on mice behavior—a forced swimming test (FST) was adopted.
Female sabra mice 6-8 weeks old were employed. Measurement of locomotor activity in mice movements were counted for 6 minutes.
Forced Swimming test (FST): The forced swimming test employed was essential similar to that described in ((Pettit-Demoulier et al, (2005) Psychopharmacology 177:245-255;)
Mice were dropped individually into a glass aquarium (height […], diameter 10 cm) containing 10 cm of water and their activity was monitored for 6 minutes. Of the total 6 minutes only the last 4 minutes was recorded—the first 2 minutes were considered as time for habitation.
The mice were treated either with 5 mg/kg or 10 mg/kg of HU436 (ip). Mice were scored at 10 minutes 90 minutes or 180 minutes after administration. In addition to mice treated with vehicle as control, 1 mice was injected ip with 5 mg/kg CBD and scored 10 minutes later. The movements/kicking of the mice were counted and the data are presented in the attached Table 1.

TNFα = TNFα levels in sera of zymosan-injected Sabra mice (Elisa); conditions: 24 hrs after application
Method: Activity of HU-436 given orally were assayed in Sabra mice. Zymosan injected to mice left hind paw, induced inflammation, TNF (tumor necrosis factor) in the serum as well as pain. During 24 h, the inflammatory paw swelling response was assayed by caliper, whereas the pain in the hind paw, was determined by Von Frey monofiber instrument.
Sabra female, mice 6-7 weeks old, were employed. Zymosan 0.6 mgr in 40 micro-liters was injected into the left hind paw. Immediately thereafter 20 30, 50 or 100 mg/kg HU436 dissolved in olive oil, in 200 μl—was given orally. Two, six and twenty-four hours thereafter, the injected left hind paw of the mice (total 5-8 mice/treatment), were examined both for swelling (Inflammation) and pain (Von Frey). The levels of TNFα in the sera of Sabra mice were determined by Elisa, 24 hrs after HU-436 application.

Sabra mice = test: Zymosan-induced hind paw swelling (inflammation), caliper; conditions: all experiments

Structure (SMILES): C=C(C)[C@@H]1CCC(C)=C[C@H]1c1c(O)cc(CCCCC)cc1O [CBD, Cannabidiol, reference compound]
- moment/kicking per minute score, Mean (Female sabra mice; mean of last 4 min): 65 per minute
- moment/kicking per minute score (Female sabra mice; minute 3 in tank): 76 per minute
- moment/kicking per minute score (Female sabra mice; minute 4 in tank): 75 per minute
- moment/kicking per minute score (Female sabra mice; minute 5 in tank): 48 per minute
- moment/kicking per minute score (Female sabra mice; minute 6 in tank): 60 per minute
- reduction of TNFα levels in the sera (TNFα): 48-58%
- potency in reducing inflammation relative to HU-436 (Sabra mice): scientifically more potent than HU-436 in reducing inflammation
